From patent publication US20020137929A1, “1 - (3-heterocyclylphenyl) isothiourea, -isourea, -guanidine and -amidine herbicidal agents” (Intellectual Property Department, BASF Aktiengesellschaft, priority 1998, published 2002)

Experiments:
CASOB (Sicklepod) = assay: Preemergence herbicidal evaluation; type: in vivo, Cassia obtusifolia; conditions: rated 4-5 weeks after treatment
Procedure, shortened: (§1)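 Scores use a 0–9 visual scale covering stand, vigor, malformation, size and chlorosis relative to controls, rated four to five weeks after treatment. Before emergence, soil-planted seeds were sprayed with compound in aqueous acetone at roughly 0.0156–0.500 kg/ha and held in the greenhouse.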

ORYSAT (Rice, Tebonnet) = assay: Postemergence herbicidal evaluation; type: in vivo, Oryza sativa, (L.) Tebonnet
Procedure, shortened: (§2)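 Two-week-old seedlings sprayed with compound in 50/50 acetone/water plus 0.5% TWEEN 20, at about 0.0156 to 0.500 kg/ha, nozzle at 40 psi. Kept in greenhouse; rated visually 4-5 weeks after treatment on a 0-9 scale versus control, repeat tests averaged.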

ABUTH (Velvetleaf) [1] = assay: Preemergence herbicidal evaluation; type: in vivo, Abutilon theophrasti; conditions: rated 4-5 weeks after treatment
Procedure, shortened: as §1

ABUTH (Velvetleaf) [2] = assay: Postemergence herbicidal evaluation; type: in vivo, Abutilon theophrasti
Procedure, shortened: as §2

MOOVA (Monochoria) = assay: Preemergence weed control under flooded paddy conditions; type: in vivo, Monochoria vaginalis; conditions: rated 3-4 weeks after treatment
Procedure, shortened: (§3)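 Ratings on a 0-9 visual scale cover stand, vigor, malformation, size, chlorosis and overall appearance relative to a control, taken three to four weeks post-treatment. Application was into flood water over freshly sown silt loam at roughly 0.0313 to 0.500 kg/ha.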

[3] = tested on: SAGPY (Arrowhead (Pygmaea)); assay: Postemergence weed control under flooded paddy conditions; type: in vivo, Sagittaria pygmaea; conditions: postemergence weeds
Procedure, shortened: (§4)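 Herbicidal effect is judged by eye on a 0–9 scale versus control, 3–4 weeks after dosing. Dosing is into flood water kept 1.5–3 cm over the soil, at about 0.0313–0.500 kg/ha in aqueous/acetone 50/50 v/v, on 3–5 cm weeds and 1.5–2.5-leaf rice seedlings.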

[4] = tested on: GLXMAW (Soybean, Williams); assay: Postemergence herbicidal evaluation; type: in vivo, Glycine max, (L.) Merr. cv Williams
Procedure, shortened: as §2

[5] = tested on: TRZAWR (Wheat, Winter, cv Riband); assay: Postemergence herbicidal evaluation; type: in vivo, Triticum aestivum
Procedure, shortened: as §2

SETVI (Foxtail, Green) [6] = assay: Postemergence herbicidal evaluation; type: in vivo, Setaria viridis
Procedure, shortened: as §2

SETVI (Foxtail, Green) [7] = assay: Preemergence herbicidal evaluation; type: in vivo, Setaria viridis; conditions: rated 4-5 weeks after treatment
Procedure, shortened: as §1

[8] = tested on: SAGPY (Arrowhead (Pygmaea)); assay: Preemergence weed control under flooded paddy conditions; type: in vivo, Sagittaria pygmaea; conditions: rated 3-4 weeks after treatment
Procedure, shortened: as §3

ECHCG (Barnyardgrass) = assay: Postemergence herbicidal evaluation; type: in vivo, Echinochloa crus-galli
Procedure, shortened: as §2

AMBEL (Ragweed, Common) = assay: Postemergence herbicidal evaluation; type: in vivo, Ambrosia artemisifolia
Procedure, shortened: as §2

CYPIR (Rice Flatsedge) = assay: Postemergence weed control under flooded paddy conditions; type: in vivo, Cyperus iria; conditions: postemergence weeds
Procedure, shortened: as §4

[9] = Rate 0.0625 kg/ha, rated 3 to 4 weeks after treatment
[10] = rate 0.1250 kg/ha, 3-4 weeks after treatment
[11] = rate 0.2500 kg/ha, 3-4 weeks after treatment
[12] = Rate 0.0313 kg/ha, rated 3 to 4 weeks after treatment
[13] = Rate 0.1250 kg/ha, rated 3 to 4 weeks after treatment
[14] = Rate 0.2500 kg/ha, rated 3 to 4 weeks after treatment

C#CCOC(=O)CC1SC(=Nc2cc(-n3c(=O)cc(C(F)(F)F)n(C)c3=O)c(F)cc2Cl)N(CC(=O)OCC)C1=O (stereo not shown) [Compound 59, 2-{{2-Chloro-5-[3,6-dihydro-3-methyl-2,6-dioxo-4-(trifluoromethyl)-1(2H)-pyrimidinyl]-4-fluorophenyl}imino}-4-oxo-3,5-thiazolidinediacetic acid, 3-ethyl (2-propynyl) ester]
Preemergence herbicidal rating CASOB (CASOB (Sicklepod); rate 0.0156 kg/ha): 0.0 | Preemergence herbicidal rating CASOB (CASOB (Sicklepod); rate 0.0313 kg/ha): 0.0 | Preemergence herbicidal rating CASOB (CASOB (Sicklepod); rate 0.0625 kg/ha): 2.0 | Preemergence herbicidal rating CASOB (CASOB (Sicklepod); rate 0.1250 kg/ha): 7.0 | Preemergence herbicidal rating CASOB (CASOB (Sicklepod); rate 0.2500 kg/ha): 7.5 | Preemergence herbicidal rating CASOB (CASOB (Sicklepod); rate 0.5000 kg/ha): 9.0 | Postemergence herbicidal rating ORYSAT (ORYSAT (Rice, Tebonnet); Rate 0.0158 kg/ha): 4.5 | Postemergence herbicidal rating ORYSAT (ORYSAT (Rice, Tebonnet); Rate 0.0315 kg/ha): 6.0 | Postemergence herbicidal rating ORYSAT (ORYSAT (Rice, Tebonnet); Rate 0.0630 kg/ha): 5.5 | Preemergence herbicidal rating ABUTH (ABUTH (Velvetleaf) [1]; rate 0.0156 kg/ha): 2.0 | Preemergence herbicidal rating ABUTH (ABUTH (Velvetleaf) [1]; rate 0.0313 kg/ha): 6.0 | Preemergence herbicidal rating ABUTH (ABUTH (Velvetleaf) [1]; rate 0.0625 kg/ha): 8.5 | Preemergence herbicidal rating ABUTH (ABUTH (Velvetleaf) [1]; rate 0.1250 kg/ha): 9.0 | Preemergence herbicidal rating ABUTH (ABUTH (Velvetleaf) [1]; rate 0.2500 kg/ha): 9.0 | Preemergence herbicidal rating ABUTH (ABUTH (Velvetleaf) [1]; rate 0.5000 kg/ha): 9.0 | Postemergence herbicidal rating ABUTH (ABUTH (Velvetleaf) [2]; Rate 0.0158 kg/ha): 9.0 | Postemergence herbicidal rating ABUTH (ABUTH (Velvetleaf) [2]; Rate 0.0315 kg/ha): 9.0 | Postemergence herbicidal rating ABUTH (ABUTH (Velvetleaf) [2]; Rate 0.0630 kg/ha): 9.0 | MOOVA herbicidal effect rating (MOOVA (Monochoria); 0.0625 kg/ha): 0.0 | MOOVA herbicidal effect rating (MOOVA (Monochoria); 0.1250 kg/ha): 0.0 | MOOVA herbicidal effect rating (MOOVA (Monochoria); 0.2500 kg/ha): 9.0 | Herbicidal rating SAGPY [3, 9]: 0.0 | Herbicidal rating SAGPY [3, 10]: 0.0 | Herbicidal rating SAGPY [3, 11]: 3.0 | Postemergence herbicidal rating GLXMAW ([4]; Rate 0.0158 kg/ha): 8.0 | Postemergence herbicidal rating GLXMAW ([4]; Rate 0.0315 kg/ha): 9.0 | Postemergence herbicidal rating GLXMAW ([4]; Rate 0.0630 kg/ha): 9.0 | Postemergence herbicidal rating TRZAWR ([5]; Rate 0.0158 kg/ha): 8.0 | Postemergence herbicidal rating TRZAWR ([5]; Rate 0.0315 kg/ha): 8.0 | Postemergence herbicidal rating TRZAWR ([5]; Rate 0.0630 kg/ha): 9.0 | Postemergence herbicidal rating SETVI (SETVI (Foxtail, Green) [6]; Rate 0.0158 kg/ha): 9.0 | Postemergence herbicidal rating SETVI (SETVI (Foxtail, Green) [6]; Rate 0.0315 kg/ha): 9.0 | Postemergence herbicidal rating SETVI (SETVI (Foxtail, Green) [6]; Rate 0.0630 kg/ha): 9.0 | Preemergence herbicidal rating SETVI (SETVI (Foxtail, Green) [7]; rate 0.0156 kg/ha): 0.0 | Preemergence herbicidal rating SETVI (SETVI (Foxtail, Green) [7]; rate 0.0313 kg/ha): 0.0 | Preemergence herbicidal rating SETVI (SETVI (Foxtail, Green) [7]; rate 0.0625 kg/ha): 1.5 | Preemergence herbicidal rating SETVI (SETVI (Foxtail, Green) [7]; rate 0.1250 kg/ha): 8.0 | Preemergence herbicidal rating SETVI (SETVI (Foxtail, Green) [7]; rate 0.2500 kg/ha): 9.0 | Preemergence herbicidal rating SETVI (SETVI (Foxtail, Green) [7]; rate 0.5000 kg/ha): 9.0 | SAGPY herbicidal effect rating ([8]; 0.0625 kg/ha): 0.0 | SAGPY herbicidal effect rating ([8]; 0.1250 kg/ha): 0.0 | SAGPY herbicidal effect rating ([8]; 0.2500 kg/ha): 3.0 | Postemergence herbicidal rating ECHCG (ECHCG (Barnyardgrass); Rate 0.0158 kg/ha): 9.0 | Postemergence herbicidal rating ECHCG (ECHCG (Barnyardgrass); Rate 0.0315 kg/ha): 9.0 | Postemergence herbicidal rating ECHCG (ECHCG (Barnyardgrass); Rate 0.0630 kg/ha): 9.0 | Postemergence herbicidal rating AMBEL (AMBEL (Ragweed, Common); Rate 0.0158 kg/ha): 9.0 | Postemergence herbicidal rating AMBEL (AMBEL (Ragweed, Common); Rate 0.0315 kg/ha): 9.0 | Postemergence herbicidal rating AMBEL (AMBEL (Ragweed, Common); Rate 0.0630 kg/ha): 9.0 | Herbicidal rating CYPIR (CYPIR (Rice Flatsedge); [9]): 0.0 | Herbicidal rating CYPIR (CYPIR (Rice Flatsedge); [10]): 0.0 | Herbicidal rating CYPIR (CYPIR (Rice Flatsedge); [11]): 9.0

CCOC(=O)CN1C(=O)C(CC(=O)OC(C)C)SC1=Nc1cc(-n2c(=O)cc(C(F)(F)F)n(C)c2=O)c(F)cc1Cl (stereo not shown) [Compound 60, 2-{{2-Chloro-5-[3,6-dihydro-3-methyl-2,6-dioxo-4-(trifluoromethyl)-1(2H)-pyrimidinyl]-4-fluoro-phenyl}imino}-4-oxo-3,5-thiazolidinediacetic acid, 3-ethyl isopropyl ester]
Preemergence herbicidal rating CASOB (CASOB (Sicklepod); rate 0.0156 kg/ha): 0.0 | Preemergence herbicidal rating CASOB (CASOB (Sicklepod); rate 0.0313 kg/ha): 0.0 | Preemergence herbicidal rating CASOB (CASOB (Sicklepod); rate 0.0625 kg/ha): 0.0 | Preemergence herbicidal rating CASOB (CASOB (Sicklepod); rate 0.1250 kg/ha): 1.0 | Preemergence herbicidal rating CASOB (CASOB (Sicklepod); rate 0.2500 kg/ha): 5.5 | Preemergence herbicidal rating CASOB (CASOB (Sicklepod); rate 0.5000 kg/ha): 4.0 | Postemergence herbicidal rating ORYSAT (ORYSAT (Rice, Tebonnet); Rate 0.0158 kg/ha): 3.0 | Postemergence herbicidal rating ORYSAT (ORYSAT (Rice, Tebonnet); Rate 0.0315 kg/ha): 3.0 | Postemergence herbicidal rating ORYSAT (ORYSAT (Rice, Tebonnet); Rate 0.0630 kg/ha): 5.0 | Preemergence herbicidal rating ABUTH (ABUTH (Velvetleaf) [1]; rate 0.0156 kg/ha): 2.0 | Preemergence herbicidal rating ABUTH (ABUTH (Velvetleaf) [1]; rate 0.0313 kg/ha): 9.0 | Preemergence herbicidal rating ABUTH (ABUTH (Velvetleaf) [1]; rate 0.0625 kg/ha): 7.0 | Preemergence herbicidal rating ABUTH (ABUTH (Velvetleaf) [1]; rate 0.1250 kg/ha): 9.0 | Preemergence herbicidal rating ABUTH (ABUTH (Velvetleaf) [1]; rate 0.2500 kg/ha): 9.0 | Preemergence herbicidal rating ABUTH (ABUTH (Velvetleaf) [1]; rate 0.5000 kg/ha): 9.0 | Postemergence herbicidal rating ABUTH (ABUTH (Velvetleaf) [2]; Rate 0.0158 kg/ha): 9.0 | Postemergence herbicidal rating ABUTH (ABUTH (Velvetleaf) [2]; Rate 0.0315 kg/ha): 9.0 | Postemergence herbicidal rating ABUTH (ABUTH (Velvetleaf) [2]; Rate 0.0630 kg/ha): 9.0 | MOOVA herbicidal effect rating (MOOVA (Monochoria); 0.0313 kg/ha): 9.0 | MOOVA herbicidal effect rating (MOOVA (Monochoria); 0.0625 kg/ha): 9.0 | MOOVA herbicidal effect rating (MOOVA (Monochoria); 0.1250 kg/ha): 9.0 | MOOVA herbicidal effect rating (MOOVA (Monochoria); 0.2500 kg/ha): 9.0 | Herbicidal rating SAGPY [3, 12]: 3.0 | Herbicidal rating SAGPY [3, 9]: 4.0 | Herbicidal rating SAGPY [3, 13]: 9.0 | Herbicidal rating SAGPY [3, 14]: 9.0 | Postemergence herbicidal rating GLXMAW ([4]; Rate 0.0158 kg/ha): 6.5 | Postemergence herbicidal rating GLXMAW ([4]; Rate 0.0315 kg/ha): 6.5 | Postemergence herbicidal rating GLXMAW ([4]; Rate 0.0630 kg/ha): 7.0 | Postemergence herbicidal rating TRZAWR ([5]; Rate 0.0158 kg/ha): 4.5 | Postemergence herbicidal rating TRZAWR ([5]; Rate 0.0315 kg/ha): 4.5 | Postemergence herbicidal rating TRZAWR ([5]; Rate 0.0630 kg/ha): 4.5 | Postemergence herbicidal rating SETVI (SETVI (Foxtail, Green) [6]; Rate 0.0158 kg/ha): 0.0 | Postemergence herbicidal rating SETVI (SETVI (Foxtail, Green) [6]; Rate 0.0315 kg/ha): 4.0 | Postemergence herbicidal rating SETVI (SETVI (Foxtail, Green) [6]; Rate 0.0630 kg/ha): 5.0 | Preemergence herbicidal rating SETVI (SETVI (Foxtail, Green) [7]; rate 0.0156 kg/ha): 0.0 | Preemergence herbicidal rating SETVI (SETVI (Foxtail, Green) [7]; rate 0.0313 kg/ha): 0.5 | Preemergence herbicidal rating SETVI (SETVI (Foxtail, Green) [7]; rate 0.0625 kg/ha): 0.5 | Preemergence herbicidal rating SETVI (SETVI (Foxtail, Green) [7]; rate 0.1250 kg/ha): 4.5 | Preemergence herbicidal rating SETVI (SETVI (Foxtail, Green) [7]; rate 0.2500 kg/ha): 4.5 | Preemergence herbicidal rating SETVI (SETVI (Foxtail, Green) [7]; rate 0.5000 kg/ha): 8.0 | SAGPY herbicidal effect rating ([8]; 0.0313 kg/ha): 3.0 | SAGPY herbicidal effect rating ([8]; 0.0625 kg/ha): 4.0 | SAGPY herbicidal effect rating ([8]; 0.1250 kg/ha): 9.0 | SAGPY herbicidal effect rating ([8]; 0.2500 kg/ha): 9.0 | Postemergence herbicidal rating ECHCG (ECHCG (Barnyardgrass); Rate 0.0158 kg/ha): 0.0 | Postemergence herbicidal rating ECHCG (ECHCG (Barnyardgrass); Rate 0.0315 kg/ha): 0.0 | Postemergence herbicidal rating ECHCG (ECHCG (Barnyardgrass); Rate 0.0630 kg/ha): 0.0 | Postemergence herbicidal rating AMBEL (AMBEL (Ragweed, Common); Rate 0.0158 kg/ha): 7.0 | Postemergence herbicidal rating AMBEL (AMBEL (Ragweed, Common); Rate 0.0315 kg/ha): 9.0 | Postemergence herbicidal rating AMBEL (AMBEL (Ragweed, Common); Rate 0.0630 kg/ha): 9.0 | Herbicidal rating CYPIR (CYPIR (Rice Flatsedge); [12]): 3.0 | Herbicidal rating CYPIR (CYPIR (Rice Flatsedge); [9]): 3.0 | Herbicidal rating CYPIR (CYPIR (Rice Flatsedge); [13]): 6.0 | Herbicidal rating CYPIR (CYPIR (Rice Flatsedge); [14]): 6.0
